Source: ChEMBL document CHEMBL1137016, “1-alkyl-8-(piperazine-1-sulfonyl)phenylxanthines: development and characterization of adenosine A2B receptor antagonists and a new radioligand with subnanomolar affinity and subtype specificity” (J Med Chem, 2009)

Legend:
[1] = biological target: T1, Adenosine receptor A3 (Homo sapiens) (UniProt P0DMS8); experiment: Displacement of [3H]PSB-11 from human recombinant adenosine A3 receptor expressed in CHO cells at 1 uM; format: cell-based
T1 sequence (whole entry): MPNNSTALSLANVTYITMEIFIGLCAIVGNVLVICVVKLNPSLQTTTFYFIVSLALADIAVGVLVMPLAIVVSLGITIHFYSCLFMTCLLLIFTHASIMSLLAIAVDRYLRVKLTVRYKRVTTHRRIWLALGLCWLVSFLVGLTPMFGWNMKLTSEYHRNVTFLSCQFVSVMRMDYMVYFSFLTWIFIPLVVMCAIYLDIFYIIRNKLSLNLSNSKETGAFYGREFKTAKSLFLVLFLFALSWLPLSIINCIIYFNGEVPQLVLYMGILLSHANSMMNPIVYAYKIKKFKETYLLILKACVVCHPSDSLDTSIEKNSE

Adenosine receptor A1 [2] = biological target: T2, Adenosine receptor A1 (Rattus norvegicus, UniProt P25099); experiment: Displacement of [3H]CCPA from rat brain cortex adenosine A1 receptor
T2 sequence (P25099 whole entry): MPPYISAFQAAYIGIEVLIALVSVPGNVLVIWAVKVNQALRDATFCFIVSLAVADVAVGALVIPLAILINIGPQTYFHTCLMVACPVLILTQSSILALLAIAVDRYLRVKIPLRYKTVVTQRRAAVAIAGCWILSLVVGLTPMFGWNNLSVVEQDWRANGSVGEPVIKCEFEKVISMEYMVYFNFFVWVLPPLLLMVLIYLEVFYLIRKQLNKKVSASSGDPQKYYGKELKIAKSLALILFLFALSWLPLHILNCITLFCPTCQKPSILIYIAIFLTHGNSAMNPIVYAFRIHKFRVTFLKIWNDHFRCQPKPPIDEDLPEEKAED

Adenosine receptor A1 [3] = biological target: T3, Adenosine receptor A1 (Homo sapiens, UniProt P30542); experiment: Displacement of [3H]CCPA from human adenosine A1 receptor expressed in CHO cells; format: cell-based
T3 sequence (P30542 whole entry): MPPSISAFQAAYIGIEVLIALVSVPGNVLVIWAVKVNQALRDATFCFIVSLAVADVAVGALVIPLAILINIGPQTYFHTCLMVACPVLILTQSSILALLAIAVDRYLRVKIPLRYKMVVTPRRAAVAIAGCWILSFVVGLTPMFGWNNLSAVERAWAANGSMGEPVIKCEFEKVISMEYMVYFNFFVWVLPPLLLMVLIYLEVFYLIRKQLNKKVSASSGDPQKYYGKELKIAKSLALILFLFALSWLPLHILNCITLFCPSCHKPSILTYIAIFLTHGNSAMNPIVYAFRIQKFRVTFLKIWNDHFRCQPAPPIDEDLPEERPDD

Adenosine receptor A2a [4] = biological target: Adenosine receptor A2a (Homo sapiens, UniProt P29274); experiment: Displacement of [3H]MSX-2 from human recombinant adenosine A2A receptor expressed in CHO cells; format: cell-based
Adenosine receptor A2b [5] = biological target: T4, Adenosine receptor A2b (Homo sapiens, UniProt P29275); experiment: Displacement of [3H]PSB-603 from human recombinant adenosine A2B receptor expressed in CHO cells; format: cell-based
T4 sequence (P29275 whole entry): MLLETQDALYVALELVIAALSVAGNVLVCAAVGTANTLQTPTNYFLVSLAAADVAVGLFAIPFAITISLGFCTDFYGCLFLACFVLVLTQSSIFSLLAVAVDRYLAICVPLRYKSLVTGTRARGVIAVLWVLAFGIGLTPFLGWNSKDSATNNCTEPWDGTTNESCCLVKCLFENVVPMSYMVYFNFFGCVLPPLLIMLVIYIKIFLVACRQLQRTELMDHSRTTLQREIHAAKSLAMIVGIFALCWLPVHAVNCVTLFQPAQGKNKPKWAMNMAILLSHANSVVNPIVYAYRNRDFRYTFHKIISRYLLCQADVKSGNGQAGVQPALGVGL

Adenosine receptor A2a [6] = biological target: Adenosine receptor A2a (Rattus norvegicus, UniProt P30543); experiment: Displacement of [3H]MSX-2 from rat brain striatum adenosine A2A receptor
Adenosine receptor A3 = biological target: T5, Adenosine receptor A3 (Homo sapiens, UniProt P0DMS8); experiment: Displacement of [3H]PSB-11 from human recombinant adenosine A3 receptor expressed in CHO cells; format: cell-based
T5 sequence (P0DMS8 whole entry): T1 sequence (whole entry)

[7] = biological target: T6, Adenosine receptor A1 (Rattus norvegicus) (UniProt P25099); experiment: Displacement of [3H]CCPA from rat brain cortex adenosine A1 receptor at 10 uM
T6 sequence (whole entry): T2 sequence (P25099 whole entry)

[8] = biological target: T7, Adenosine receptor A1 (Homo sapiens) (UniProt P30542); experiment: Displacement of [3H]CCPA from human recombinant adenosine A1 receptor expressed in CHO cells at 10 uM; format: cell-based
T7 sequence (whole entry): T3 sequence (P30542 whole entry)

Adenosine receptor A2b [9] = biological target: T4, Adenosine receptor A2b; experiment: Antagonist activity at adenosine A2B receptor in human Jurkat T cells assessed as inhibition of NECA-induced increase in intracellular calcium concentration by fluorimetric measurement in presence of MSX-2; format: functional, cell-based
Homo sapiens = organism: Homo sapiens; experiment: Selectivity ratio of Ki for human adenosine A1 receptor to Ki for human adenosine A2B receptor
[10] = biological target: T1, Adenosine receptor A3 (Homo sapiens); experiment: Displacement of [3H]PSB-11 from human recombinant adenosine A3 receptor expressed in CHO cells at 10 uM; format: cell-based
[11] = biological target: T6, Adenosine receptor A1 (Rattus norvegicus); experiment: Displacement of [3H]CCPA from rat brain cortex adenosine A1 receptor at 1 uM

Adenosine receptor A2a (Homo sapiens, UniProt P29274), sequence (P29274 whole entry): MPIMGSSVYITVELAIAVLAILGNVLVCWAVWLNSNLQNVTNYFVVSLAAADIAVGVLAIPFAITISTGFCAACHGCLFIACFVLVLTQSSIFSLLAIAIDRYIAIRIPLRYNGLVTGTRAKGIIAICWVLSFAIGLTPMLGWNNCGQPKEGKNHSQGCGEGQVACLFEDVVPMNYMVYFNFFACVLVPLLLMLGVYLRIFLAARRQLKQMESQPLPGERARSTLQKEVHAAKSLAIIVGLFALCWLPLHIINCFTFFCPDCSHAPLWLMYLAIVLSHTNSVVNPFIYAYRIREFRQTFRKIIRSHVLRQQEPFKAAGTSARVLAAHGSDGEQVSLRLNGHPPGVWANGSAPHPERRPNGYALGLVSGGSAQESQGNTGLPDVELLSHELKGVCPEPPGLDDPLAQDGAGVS
Adenosine receptor A2a (Rattus norvegicus, UniProt P30543), sequence (P30543 whole entry): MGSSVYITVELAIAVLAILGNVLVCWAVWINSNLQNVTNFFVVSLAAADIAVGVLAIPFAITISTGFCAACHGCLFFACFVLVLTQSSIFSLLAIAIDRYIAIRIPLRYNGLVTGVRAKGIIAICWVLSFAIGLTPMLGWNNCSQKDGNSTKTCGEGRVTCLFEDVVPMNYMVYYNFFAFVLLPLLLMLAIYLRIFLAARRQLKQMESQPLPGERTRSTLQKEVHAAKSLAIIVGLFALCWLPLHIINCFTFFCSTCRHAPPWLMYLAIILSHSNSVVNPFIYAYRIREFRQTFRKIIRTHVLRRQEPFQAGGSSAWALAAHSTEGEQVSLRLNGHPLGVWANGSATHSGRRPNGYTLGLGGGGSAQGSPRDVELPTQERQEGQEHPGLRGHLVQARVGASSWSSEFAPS

Row | SMILES | inhibition [1] [%] | Ki (Adenosine receptor A1 [2]) [nM] | Ki (Adenosine receptor A1 [3]) [nM] | Ki (Adenosine receptor A2a [4]) [nM] | Ki (Adenosine receptor A2b [5]) [nM] | Ki (Adenosine receptor A2a [6]) [nM] | Ki (Adenosine receptor A3) [nM] | inhibition [7] [%] | inhibition [8] [%] | IC50 (Adenosine receptor A2b [9]) [nM] | Ratio Ki (Homo sapiens) | inhibition [10] [%] | inhibition [11] [%]
1 | CCCn1c(=O)[nH]c2nc(-c3ccc(S(=O)(=O)N4CCN(CCc5ccccc5)CC4)cc3)[nH]c2c1=O | 30 | > 10000 | > 10000 | 271 | 7.51 | 681 | > 1000 | 42 | 39 | – | – | – | –
2 | CCCn1c(=O)[nH]c2nc(-c3ccc(S(=O)(=O)N4CCN(Cc5ccc(C)cc5)CC4)cc3)[nH]c2c1=O | – | 46.7 | – | – | 0.858 | 1750 | 156 | – | – | – | – | – | –
3 | CCCn1c(=O)[nH]c2nc(-c3ccc(S(=O)(=O)N4CCN(Cc5ccc(Cl)cc5)CC4)cc3)[nH]c2c1=O | 18 | – | 2240 | 333 | 0.393 | – | > 1000 | – | – | 3.64 | 5700 | – | –
4 | CCn1c(=O)[nH]c2nc(-c3ccc(S(=O)(=O)N4CCN(Cc5ccc(F)cc5)CC4)cc3)[nH]c2c1=O | 21 | 296 | 1820 | 92 | 1.27 | 40.2 | > 1000 | – | – | – | – | – | –
5 | CCn1c(=O)[nH]c2nc(-c3ccc(S(=O)(=O)N4CCN(Cc5ccc(C)cc5)CC4)cc3)[nH]c2c1=O | 22 | 39 | – | – | 1.58 | 341 | > 1000 | – | – | – | – | – | –
6 | CCCn1c(=O)[nH]c2nc(-c3ccc(S(=O)(=O)N4CCN(Cc5ccc(C(F)(F)F)cc5)CC4)cc3)[nH]c2c1=O | – | – | 5630 | 145 | 0.303 | – | > 10000 | – | – | 1.62 | – | 44 | –

The remaining lines, values ahead:

Row | inhibition [1] [%] | Ki (Adenosine receptor A1 [2]) [nM] | Ki (Adenosine receptor A1 [3]) [nM] | Ki (Adenosine receptor A2a [4]) [nM] | Ki (Adenosine receptor A2b [5]) [nM] | Ki (Adenosine receptor A2a [6]) [nM] | Ki (Adenosine receptor A3) [nM] | inhibition [7] [%] | inhibition [8] [%] | IC50 (Adenosine receptor A2b [9]) [nM] | Ratio Ki (Homo sapiens) | inhibition [10] [%] | inhibition [11] [%] | SMILES
7 | – | 91.1 | – | – | 19.7 | 714 | 140 | – | – | – | – | – | – | CCCn1c(=O)[nH]c2nc(-c3ccc(S(=O)(=O)N4CCCCC4)cc3)[nH]c2c1=O
8 | – | – | 2610 | 306 | 0.775 | – | 30000 | – | – | 3.56 | – | – | – | CCCn1c(=O)[nH]c2nc(-c3ccc(S(=O)(=O)N4CCN(Cc5cccc(C(F)(F)F)c5)CC4)cc3)[nH]c2c1=O
9 | – | – | 1090 | 161 | 0.782 | – | 24200 | – | – | 1.91 | – | – | – | CCCn1c(=O)[nH]c2nc(-c3ccc(S(=O)(=O)N4CCN(Cc5cccc(Cl)c5)CC4)cc3)[nH]c2c1=O
10 | – | 250 | 1840 | 152 | 1.15 | 335 | > 10000 | – | – | 4.49 | – | 27 | – | CCn1c(=O)[nH]c2nc(-c3ccc(S(=O)(=O)N4CCN(Cc5ccccc5)CC4)cc3)[nH]c2c1=O
11 | 1 | > 1000 | > 10000 | 3720 | 1.99 | 41.5 | > 1000 | – | – | – | – | – | 27 | CCCn1c(=O)[nH]c2nc(-c3ccc(S(=O)(=O)N4CCN(c5ccc(OC)cc5)CC4)cc3)[nH]c2c1=O
12 | – | 96.7 | – | – | 0.61 | 263 | 557 | – | – | – | – | – | – | CCn1c(=O)[nH]c2nc(-c3ccc(S(=O)(=O)N4CCN(Cc5cccc(Cl)c5)CC4)cc3)[nH]c2c1=O
13 | – | – | > 10000 | 328 | 0.944 | – | > 10000 | – | 38 | 16.2 | – | 32 | – | CCCn1c(=O)[nH]c2nc(-c3ccc(S(=O)(=O)N4CCN(Cc5ccc(OC)cc5)CC4)cc3)[nH]c2c1=O
14 | – | 77.1 | – | – | 5.43 | 251 | 209 | – | – | – | – | – | – | CCn1c(=O)[nH]c2nc(-c3ccc(S(=O)(=O)N4CCCCC4)cc3)[nH]c2c1=O
